Data reported in patent US10391095B2, “DNA-PK inhibitors” (Vertex Pharmaceuticals Incorporated, priority 2012, dated 2019).

Biological target: DNA-PK (Homo sapiens, UniProt P78527)
Assay: DNA-PK inhibition assay (radiometric, 33P-ATP)
Type: biochemical
Conditions: 100 μM ATP, competitive tight-binding fit
In short: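 Approx. 6 nM DNA-PK with 10 µg/mL sheared dsDNA, 0.8 mg/mL peptide substrate and 100 µM 33P-ATP in HEPES pH 7.5, 10 mM MgCl2; 45 min, phosphoric acid quench. Phosphopeptide captured on filter plates and counted by scintillation; Ki from a competitive tight-binding model fit.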

Ki, < 30 nM:
CNC(=O)c1ccnc2c([C@H](C)CNc3cc(-c4ccc(O)cc4)ncn3)cccc12 [Compound 685]
COCCn1ccc2cc(-c3cc(NCCc4ccccc4OC)ncn3)cnc21 [Compound 38]
COc1cc(F)c(F)cc1[C@H](C)CNc1cc(-c2ccc(C)nc2)ncn1 [Compound 128]
CNC(=O)c1ccnc2c([C@H](C)CNc3cc(-c4ccc(C(O)C(C)C)nc4)ncn3)cccc12 (stereo partly drawn) [Compound 925]
COc1ccccc1CCNc1cc(-c2cnc3c(ccn3CC3CC3)c2)ncn1 [Compound 40]
COc1cc(CO)ccc1C(C)CNc1cc(-c2ccc(N3CCN(C(C)=O)CC3)nc2)ncn1 (stereo not drawn) [Compound 115]
Cc1cc([C@H](C)CNc2cc(-c3ccc4ncccc4c3)ncn2)c2c(n1)CCO2 [Compound 508]
C=C(CNc1cc(-c2ccc(C)nc2)ncn1)c1cccc2c(C(=O)NC)ccnc12 [Compound 467]
CNC(=O)c1ccnc2c([C@H](C)CNc3cc(-c4cnc(N)c(C)c4)ncn3)cccc12 [Compound 948]
CNC(=O)c1ccnc2c([C@H](C)CNc3cc(-c4cnc5c(c4)CCCO5)ncn3)cccc12 [Compound 793]
Cc1ccc(-c2cc(NC[C@@H](C)c3cccc4c(C(N)=O)ccnc34)ncn2)cn1 [Compound 494]
COc1cc(C(=O)NC2CCCC2)ccc1C(C)CNc1cc(-c2ccc(C)nc2)ncn1 (stereo not drawn) [Compound 159]
CNC(=O)c1ccnc2c([C@H](C)CNc3cc(-c4ccc(C(=O)O)s4)ncn3)cccc12 [Compound 775]
CNC(=O)c1ccnc2c([C@H](C)CNc3cc(-c4cnc(C)nc4)ncn3)ccc(F)c12 [Compound 622]
CNC(=O)c1ccc([C@H](C)CNc2cc(-c3ccnc4c3ccn4C3COC3)ncn2)c(OC)c1 [Compound 479]
CNC(=O)c1ccnc2c([C@H](C)CNc3cc(-c4cnc(C)s4)ncn3)ccc(F)c12 [Compound 827]
CNC(=O)c1ccnc2c([C@H](C)CNc3cc(-c4cnc(C)nc4)ncn3)cc(F)cc12 [Compound 637]
CNC(=O)c1ccnc2c([C@H](C)CNc3cc(-c4cnc(C5CC5)nc4)ncn3)cccc12 [Compound 790]
CNC(=O)c1ccnc2c([C@H](C)CNc3cc(-c4ccc(C5CCC5)nc4)ncn3)cccc12 [Compound 845]
CNC(=O)c1ccnc2c([C@H](C)CNc3cc(-c4ccc(OC)cc4)ncn3)cccc12 [Compound 682]
[2H]c1nc(NC[C@@H](C)c2cccc3c(C(=O)NC)ccnc23)cc(-c2ccc(C)nc2)n1 [Compound 604]
Cc1ccc(-c2cc(NC[C@@H](C)c3ccccc3OC3CC3)ncn2)cn1 [Compound 107]
CNC(=O)c1c(F)cnc2c([C@H](C)CNc3cc(-c4ccc(C)nc4)ncn3)cccc12 [Compound 620]
CNC(=O)c1ccnc2c([C@H](C)CNc3cc(-c4cccnc4)ncn3)cccc12 [Compound 612]
COc1ncc(-c2cc(NC[C@@H](C)c3ccnc4c3OCCO4)ncn2)cc1CO [Compound 550]
[2H]C([2H])([2H])NC(=O)c1ccnc2c([C@H](C)CNc3cc(-c4ccc(C)nc4)ncn3)cccc12 [Compound 549]
CNC(=O)c1ccc([C@H](C)CNc2cc(-c3ccc(C(=O)NC4CC4)cc3)ncn2)c(OC)c1 [Compound 318]
CCOc1ccc(-c2cc(NC[C@@H](C)c3ccc(F)c4c(C(=O)NC)ccnc34)ncn2)cn1 [Compound 934]
CCC(CO)Nc1ccc(-c2cc(NC[C@@H](C)c3cccc4c(C(=O)NC)ccnc34)ncn2)cn1 (stereo partly drawn) [Compound 724]
CCOC(=O)c1ccc(-c2cc(NC[C@@H](C)c3cccc4c(C(=O)NC)ccnc34)ncn2)o1 [Compound 795]
CNC(=O)c1ccc([C@H](C)CNc2cc(-c3ccc(C(C)=O)cc3)ncn2)c(OC)c1 [Compound 319]
CNC(=O)c1ccnc2c([C@H](C)CNc3cc(-c4ccc(N[C@@H]5COC[C@H]5O)nc4)ncn3)cccc12 [Compound 726]
CNC(=O)c1ccc([C@H](C)CNc2cc(-c3ccc(N4CCOCC4)nc3)ncn2)c(OC)c1 [Compound 367]
CNC(=O)c1ccnc2c([C@H](C)CNc3cc(-c4cnc(C)c(F)c4)ncn3)ccc(F)c12 [Compound 974]
COc1ccccc1[C@H](C)CNc1cc(-c2cnc3c(cnn3C3CN(C(C)=O)C3)c2)ncn1 [Compound 249]
C[C@H](CNc1cc(-c2cnc(F)c(N)c2)ncn1)c1ccnc2c1OCCO2 [Compound 554]
CNC(=O)c1ccnc2c([C@H](C)CNc3cc(-c4ccc(NC(C)=O)cc4)ncn3)cccc12 [Compound 749]
C#CCNc1ccc(-c2cc(NC[C@@H](C)c3ccc(C(=O)NC)cc3OC)ncn2)cn1 [Compound 385]
CCNc1ncc(-c2cc(NC[C@@H](C)c3ccc(C(=O)NC)cc3OC)ncn2)cn1 [Compound 585]
CNC(=O)c1ccc([C@H](C)CNc2cc(-c3ccc(C)nc3)ncn2)c(OC)c1 [Compound 175]
CNC(=O)c1ccnc2c([C@H](C)CNc3cc(-c4ccc(C)s4)ncn3)cccc12 [Compound 839]
CCOc1ccccc1C(C)CNc1cc(-c2ccc(N3CCN(C)CC3)nc2)ncn1 (stereo not drawn) [Compound 92]
CNC(=O)c1ccnc2c([C@H](C)CNc3cc(-c4cncc(CO)c4)ncn3)cccc12 [Compound 956]
CNC(=O)c1c(F)cnc2c([C@H](C)CNc3cc(-c4ccc(F)nc4)ncn3)cccc12 [Compound 899]
Cc1ccc(-c2cc(NCC(C)c3ccccc3OC3CCCC3)ncn2)cn1 (stereo not drawn) [Compound 241]
CCN1CCN(c2ccc(-c3cc(NC[C@@H](C)c4cccc5c(C(=O)NC)ccnc45)ncn3)cn2)CC1=O [Compound 716]
CNC(=O)c1ccc(C(C)CNc2cc(-c3ccc(OCCS(C)(=O)=O)nc3)ncn2)c(OC)c1 (stereo not drawn) [Compound 325]
CNC(=O)c1ccnc2c([C@H](C)CNc3cc(-c4ccn(C)c(=O)c4)ncn3)cccc12 [Compound 656]
COc1ccccc1[C@H](C)CNc1cc(-c2ccc(NC3CCN(C4CC4)CC3)nc2)ncn1 [Compound 242]
CNC(=O)c1ccnc2c([C@H](C)CNc3cc(-c4ccc5c(c4)CCNC5)ncn3)cccc12 [Compound 802]
CNC(=O)c1ccnc2c([C@H](C)CNc3cc(-c4ccc(N5CCOCC5)cc4)ncn3)cccc12 [Compound 678]
CNC(=O)c1ccnc2c([C@H](C)CNc3cc(-c4ccc(N5CCN(C(C)C)CC5)nc4)ncn3)cccc12 [Compound 722]
CNC(=O)c1ccc(C(C)CNc2cc(-c3ccc4c(c3)c(C)nn4C3COC3)ncn2)c(OC)c1 (stereo not drawn) [Compound 279]
CNC(=O)c1ccnc2c([C@H](C)CNc3cc(-c4cncc(N)c4)ncn3)cccc12 [Compound 874]
CNCCN(C)c1ccc(-c2cc(NC[C@@H](C)c3ccc(C(=O)NC)cc3OC)ncn2)cn1 [Compound 368]
CNC(=O)c1ccnc2c([C@H](C)CNc3cc(-c4ccc(=O)n(C)c4)ncn3)cccc12 [Compound 655]
Cc1ccc(-c2cc(NC[C@@H](C)c3ccnc4c3OCCC4)ncn2)cn1 [Compound 535]
CNC(=O)c1ccnc2c([C@H](C)CNc3cc(-c4ccnc(N5CCOCC5)c4)ncn3)cccc12 [Compound 818]
CNC(=O)c1ccnc2c([C@H](C)CNc3cc(-c4ccc(OCC5CC5)nc4)ncn3)cccc12 [Compound 891]
COc1nc(N)ncc1[C@H](C)CNc1cc(-c2ccc(C)nc2)ncn1 [Compound 475]
CNC(=O)c1ccnc2c([C@H](C)CNc3cc(-c4cnc(C5CCC5)nc4)ncn3)ccc(F)c12 [Compound 851]
CNC(=O)c1ccc(C(C)CNc2cc(-c3cnc4[nH]ncc4c3)ncn2)c(OC)c1 (stereo not drawn) [Compound 167]
CNC(=O)c1ccnc2c([C@H](C)CNc3cc(-c4cncc(C(C)(C)O)c4)ncn3)cccc12 [Compound 879]
Cc1ccc(-c2cc(NCC(C)c3cccc4scnc34)ncn2)cn1 (stereo not drawn) [Compound 333]
CNC(=O)c1ccnc2c([C@H](C)CNc3cc(-c4ccc(NC5CCN(C)CC5)nc4)ncn3)cccc12 [Compound 635]
CNC(=O)c1ccnc2c([C@H](C)CNc3cc(-c4ccc(OC)nc4)ncn3)cccc12 [Compound 615]
CNC(=O)c1ccnc2c([C@H](C)CNc3cc(-c4ccc(C5CC5)nc4)ncn3)cccc12 [Compound 847]
CNC(=O)c1ccc(C(C)CNc2cc(-c3cnc4c(ccn4C)c3)ncn2)c(OC)c1 (stereo not drawn) [Compound 189]
CCOc1cc(-c2cc(NC[C@@H](C)c3cccc4c(C(=O)NC)ccnc34)ncn2)ccn1 [Compound 962]
